Results reported in US8956842B2, “Paenibacillus sp. HPL-3 strain producing xylanase having heat-resistance, a wide range of optimum pH and high activity, a novel xylanase separated from the strain, and a method for mass-production of the same using the transformant originated from the strain” (Korea Research Institute of Chemical Technology, priority 2011, dated 2015).
Read-outs that look alike come from different tables or passages of the source. Blank lines part the entries; values can stand above or below the molecule they belong to.

What was measured:
novel xylanase = test: Effect of metal ions and additives on xylanase activity (DNS method); type: biochemical, Paenibacillus sp. HPL-3
Experimental: (§1) The measurement of xylanase activity (xylan decomposing activity) of the isolated strain, active clone, transformant, and isolated/purified enzyme was performed by either or both of the following two methods. The first method was enzyme activity measuring method using solid culture. Particularly, soft agar double medium was prepared by adding birch xylan (Fluka Bio Chemika. Co.) to LB medium by 0.5˜1.0%, to which the strain was inoculated, followed by culture for overnight. On the next day, the strain and active clone forming translucent zone (halo) around the cultured colony were selected by Congo-red staining. The second method was enzyme activity measuring method using liquid culture, that is DNS (3,5-dinitrosalicylic acid) quantitative method (Miller G. L. Anal Chem 31, 426-428, 1959). Particularly, 50 μl of substrate solution (50 mM Tris-HCl containing birch xylan by 2%, pH 7.0) was added to 50 μl of enzyme solution, followed by reaction at 50° C. for 20 minutes. 200 μl of DNS solution was added thereto, followed by further reaction at 90° C. for 5 minutes. Then, OD540 was measured. 1 unit of the enzyme was defined as the enzyme activity of 1 mg xylanase to produce 1 μmol of reducing sugar (xylose) per 1 minute.
To investigate the effect of metal ions on xylanase activity, CaCl2, MgCl2, MgCl2, CuCl2, ZnCl2, and FeCl3 were added by 1 mM each. It was further investigated how other salts such as NaCl, LiCl, KCl, NH4Cl, EDTA, CsCl2, 2-ME (2-Mercaptoethanol), DTT (Dithiothreitol), PMSF (Penylmethylsulfonyl fluoride), acetate, and furfural could affect xylanase activity.

[1] = Xylanase activity (xylan decomposing activity) by DNS quantitative method at different pH and temperature; type: biochemical
Experimental: as §1, with “minute. One clone showing the best activity, GM3-SLX1, was selected by liquid culture and solid culture activity test (FIG. 2).” for “minute.”
In this example, pH, temperature, and metal ion-dependent activity of xylanase over-expressed and isolated from the E. coli transformant over-expressing the novel xylanase constructed in Example <3-4> was investigated by the same manner as described in example 3-2. pH of the reaction solution was regulated to pH 4˜5 with citric acid buffer, to pH 6˜8 with phosphate buffer, to pH 7˜9 with Tris/HCl buffer, and to pH 9˜11 with glycine/NaOH buffer. To investigate the effect of metal ions on xylanase activity, CaCl2, MgCl2, MgCl2, CuCl2, ZnCl2, and FeCl3 were added by 1 mM each. It was further investigated how other salts such as NaCl, LiCl, KCl, NH4Cl, EDTA, CsCl2, 2-ME (2-Mercaptoethanol), DTT (Dithiothreitol), PMSF (Penylmethylsulfonyl fluoride), acetate, and furfural could affect xylanase activity.
E. coli BL21-Gold (DE) (Stratagene, USA) was transfected with pIVEX GST-xylanase recombinant vector (Bioprogen Co., Ltd., Korea) containing the gene (SEQ. ID. NO: 3) encoding the novel xylanase represented by SEQ. ID. NO: 4, which was inoculated in liquid medium (LB 25 g/L) supplemented with ampicillin (50 μg/ml), followed by shaking culture at 37° C. at 150 rpm until […] reached 0.4˜0.6. To induce the expression of the target protein in E. coli cells, IPTG (isopropyl-D-thiogalactoside) was added to the suspension at the concentration of 1 mM, followed by further culture for 3 hours. The culture solution was centrifuged at 10,000 rpm for 10 minutes and the recovered precipitate was washed with PBS twice. The washed precipitate was re-suspended in PBS and then cell were lysed by using a ultrasonicator (Cosmo Bio Co., LTD). Centrifugation was performed (12,000 rpm, 10 minutes) to obtain supernatant. To isolate xylanase from the supernatant, glutathione S-transferase column (GST binding resin column, Novagen) was used. For xylanase separation, the obtained supernatant was filled in glutathione S-transferase column (GST binding resin column, Novagen) equilibrated with washing buffer (50 mM Tris-HCl, 100 mM NaCl; pH 7.0), followed by treatment of factor Xa protease (NEB) and separation using washing buffer (50 mM Tris-HCl, 100 mM NaCl; pH 7.0). The enzyme activity of xylanase in each sample recovered from the purification stage was investigated. The purification of active fraction showing the enzyme activity was confirmed by SDS-PAGE. Protein content was measured by using Bradford method (Bradford, Sigma Aldrich), and BSA (bovine serum albumin) was used as the standard protein.

[2] = Enzymatic reaction rate (Lineweaver-Burk) of the purified xylanase; type: biochemical
[3] = 1 mM additive, negative control = 100
[4] = 1 mM of heavy metal or additive

Molecule: [Cl-].[Li+] [LiCl]
Relative activity according to conc. of additive (%) (novel xylanase; [3]): 101%

Molecule: [Ca+2].[Cl-].[Cl-] [CaCl2]
Relative activity according to conc. of additive (%) (novel xylanase; [3]): 102%

Molecule: [Cl-].[K+] [KCl]
Relative activity according to conc. of additive (%) (novel xylanase; [3]): 101%

Molecule: [Cl][Fe]([Cl])[Cl] [FeCl3]
Relative activity according to conc. of additive (%) (novel xylanase; [3]): 88%
xylanase activity inhibited by (novel xylanase; [4]): 12%
enzyme activity in presence of additive (novel xylanase; concentration of 100 HM): hardly affected

Molecule: [Cl-].[Cs+] [CsCl2]
Relative activity according to conc. of additive (%) (novel xylanase; [3]): 97%

Molecule: [Cl][Mn][Cl] [MnCl2]
Relative activity according to conc. of additive (%) (novel xylanase; [3]): 98%

Molecule: [Cl-].[Na+] [NaCl]
Relative activity according to conc. of additive (%) (novel xylanase): 105%

Molecule: Cl.N [NH4Cl]
Relative activity according to conc. of additive (%) (novel xylanase; [3]): 99%

Molecule: [Cl-].[Cl-].[Mg+2] [MgCl2]
Relative activity according to conc. of additive (%) (novel xylanase; [3]): 93%

Molecule: O=S(=O)([O-])[O-].[Cu+2] [CuSO4]
Relative activity according to conc. of additive (%) (novel xylanase; [3]): 26%
xylanase activity inhibited by (novel xylanase; [4]): 74%
enzyme activity in presence of additive (novel xylanase; concentration of 100 HM): hardly affected

Molecule: O=C(O)CN(CCN(CC(=O)O)CC(=O)O)CC(=O)O [EDTA]
Relative activity according to conc. of additive (%) (novel xylanase): 54%
enzyme activity in presence of additive (novel xylanase): hardly affected
xylanase activity inhibited by (novel xylanase): 46%

Relative activity according to conc. of additive (%) (novel xylanase; [3]): 89%
Molecule: OCCS [2-ME, 2-Mercaptoethanol]

Relative activity according to conc. of additive (%) (novel xylanase; [3]): 95%
Molecule: O[C@H](CS)[C@H](O)CS (racemic) [DTT, Dithiothreitol]

Molecule: O=Cc1ccco1 [Furfural, furfural]
Relative activity according to conc. of additive (%) (novel xylanase; [3]): 98%

Relative activity according to conc. of additive (%) (novel xylanase; [3]): 101%
Molecule: CC(=O)O [Acetate]

Molecule: O=S(=O)([O-])[O-].[Zn+2] [ZnSO4]
Relative activity according to conc. of additive (%) (novel xylanase; [3]): 72%
xylanase activity inhibited by (novel xylanase; [4]): 28%
enzyme activity in presence of additive (novel xylanase; concentration of 100 HM): hardly affected

Molecule: O=S(=O)(F)Cc1ccccc1 [PMSF, Penylmethylsulfonyl fluoride]
Relative activity according to conc. of additive (%) (novel xylanase; [3]): 95%

activity of purified enzyme compared with before purification ([1]; after glutathione resin column purification): at least 5 times
B1: novel xylanase: approximately 65 kD xylanase of Paenibacillus sp. HPL-3, amino acid sequence SEQ. ID. NO: 4, produced in E. coli transformant (protein)
chain: MDTLKLYVESSNPAQAYYLDEVEIRQVSETPTTPPTEPTSGIESRFEDGTAQGWVSRMGTETVQVSNADARTGSYSLLTTGRQQTYAGPKLDVTATVQKGSRYTVSAWVKLAPGEQQPAKVRLSVQRDHQGESTYETVVGNTAITTGGWTHLYGTYTLAHEADTVSMYLETPEGTASFYMDDFELSLVPPLAIEKDIPSLHGLYQGQFSIGTAIEAFQTEGAYGELVQKHFNSVVAGNAMKPISLQPSEGQFHWEEADRIVQFAQQHGIAIRFHTLVWHNQTGDWMFKDKNGQPMTPTAENKKLLLDRLETHIRAVAARYKNVITDWDVVNEVIDPDQPDGMRRSKWYQITGTDYIDKAFRVTREAAGPNARLYINDYNTHEPKKRDFLYNLVRDLLAKGVPIDGVGHQSHIRLEFPAIDEMEQSIEKFASLGLDNQITELDMGLYSNDTDHYETIPEAMLIRQAHRYRALFDMFSRQQEHISNVTIWGTDDGNTWLSMFPIARLDKPLLFDERLKAKYAYWALVDPSKVPPLPAGSNE
modifications: SLX-O9 protein sequence
notes: approximately 65 kD xylanase of Paenibacillus sp; ID; NO: 4, produced in E. coli transformant
enzyme activity ([1]; 50° C., pH 5.0): 97.37 units
enzyme activity ([1]; 50° C., pH 6.0): 124.19 units
enzyme activity ([1]; 50° C., pH 7.0): 122.21 units
enzyme activity ([1]; 50° C., pH 8.0): 124.61 units
enzyme activity ([1]; 50° C., pH 9.0): 122.95 units
enzyme activity ([1]; 50° C., pH 10.0): 103.27 units
enzyme activity ([1]; 50° C., pH 11.0): 96.08 units
enzyme activity ([1]; 60° C., pH 5.0, units = μM of xylose produced by 1 mg of enzyme per 1 minute): 26.93 units
enzyme activity ([1]; 60° C., pH 6.0): 105.19 units
enzyme activity ([1]; 60° C., pH 7.0): 123.56 units
enzyme activity ([1]; 60° C., pH 8.0): 120.95 units
enzyme activity ([1]; 60° C., pH 9.0): 112.25 units
enzyme activity ([1]; 60° C., pH 10.0): 29.89 units
enzyme activity ([1]; 60° C., pH 11.0): 22.76 units
xylanase activity when conjugated onto the resin ([1]; glutathione resin): not changed
xylanase activity against other xylans (beech, oats, etc) compared with birch xylan [2]: similar
